Measurements as given in patent US20140163034A1, “INHIBITORS OF ANANDAMIDE TRANSPORT AND THEIR THERAPEUTIC USES” (IIT - Istituto Italiano di Tecnologia, priority 2011, published 2014).

Columns and labels:
[1] = target: T1, rat FLAT-GST (Rattus norvegicus, UniProt P97612, DEL9-76); assay: [3H]-anandamide binding to purified GST-FLAT fusion protein
T1 construct: made in house; host or cells: E. coli BL21
T1 sequence (P97612 with tags, fused parts or gaps DEL9-76): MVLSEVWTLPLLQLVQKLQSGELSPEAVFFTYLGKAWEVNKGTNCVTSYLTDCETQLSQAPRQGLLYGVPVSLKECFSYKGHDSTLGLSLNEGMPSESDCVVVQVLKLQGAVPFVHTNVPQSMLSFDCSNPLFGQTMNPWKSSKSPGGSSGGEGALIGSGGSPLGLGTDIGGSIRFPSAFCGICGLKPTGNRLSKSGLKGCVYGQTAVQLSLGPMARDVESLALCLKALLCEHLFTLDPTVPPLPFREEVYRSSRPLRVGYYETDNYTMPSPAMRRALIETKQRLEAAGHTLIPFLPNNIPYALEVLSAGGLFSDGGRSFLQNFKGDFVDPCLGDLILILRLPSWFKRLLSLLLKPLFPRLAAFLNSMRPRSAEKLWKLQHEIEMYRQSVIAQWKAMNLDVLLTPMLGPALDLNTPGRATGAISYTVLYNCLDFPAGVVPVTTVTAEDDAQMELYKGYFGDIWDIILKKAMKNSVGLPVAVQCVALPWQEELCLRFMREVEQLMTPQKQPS
Description: A pGEX-rFLAT plasmid containing fused rat FLAT and GST genes was constructed into a pGEX-4T vector (Amersham Biosciences, Piscataway, N.J.) and digested with BamH 1. The GST-FLAT fusion protein was generated in E. coli (BL21 strain, Novagen, San Diego, Calif.). E. coli were cultured in 2× yeast extract medium and induced with isopropyl-1-thio-β-D-galactopyranoside (IPTG) (0.1 mM). After induction, bacteria were grown at 27° C. for 10 h and harvested by centrifugation. The GST-FLAT fusion protein was purified using glutathione-sepharose beads (Amersham Biosciences), following manufacturer's instructions. Purified GST-FLAT was incubated at 25° C. for 2 h in HEPES buffer (50 mM, pH 7.0) containing KCl (50 mM), EDTA (5 mM), dithiothreitol (10 mM), and [^3H]-anandamide (15 Ci/mmol). Free from bound [^3H]-anandamide was separated on a Sephadex G-25 spin column (Amersham Biosciences) and radioactivity in the bound fraction was measured by liquid scintillation counting. Non-specific binding was determined in the presence of non-radioactive anandamide (10 μM).

[2] = target: T2, FLAT-expressing Hek293 cells (Rattus norvegicus, UniProt P97612, DEL9-76); assay: [3H]-anandamide accumulation (translocation) in FLAT-expressing Hek293 cells; type: cell-based; conditions: for IC50: 5 min at 37° C., read-out: IC50, inhibition of [3H]-anandamide accumulation in FLAT-expressing Hek293 cells
T2 construct: expressed in transfected cells
T2 sequence (P97612 with tags, fused parts or gaps DEL9-76): T1 sequence (P97612 with tags, fused parts or gaps DEL9-76)

[3] = test system: carrageenan-treated mice; assay: Carrageenan-induced inflammatory pain and paw edema in mice; type: in vivo; conditions: for effect of antagonist on the anti-hyperalgesic and anti-edema effects of ARN272: antagonist 1 mg/kg intraperitoneal, 30 min before carrageenan
Description: Behavioral experiments were performed in accordance with the Ethical Guidelines of the International Association for the Study of Pain and approved by Italian regulations on protection of animals used for experimental and other scientific purposes (D.M. 116192) as well as with European Economic Community regulations (O.J. of E.C. L 358/1 Dec. 18, 1986). Behavioral testing was performed between 9:00 a.m. and 5:00 p.m., in a quiet room, during the light cycle. Mice were used once and were sacrificed at the end of the experiment by cervical dislocation. edema was elicited by injecting λ-carrageenan (1% weight/vol in sterile water, 20 μl) into the left hindpaw of mice. Edema was measured with a plethysmometer (Ugo Basile, Comerio, Italy) at different time intervals. Drug solutions were prepared immediately before use in saline containing 10% PEG-400 and 10% Tween 80. Mechanical hyperalgesia was determined by measuring the latency in seconds to withdraw the paw away from a constant mechanical pressure exerted onto the dorsal surface. A 15-g calibrated glass cylindrical rod (diameter=10 mm) chambered to a conical point (diameter=3 mm) was used to exert the mechanical force. The weight was suspended vertically between two rings attached to a stand and was free to move vertically. A cutoff time of 180 s was used. Withdrawal thresholds were measured on both the inflamed paw (ipsilateral) and not inflamed paw (contralateral) 2, 4, 6 and 24 hours after carrageenan injection. Thermal hyperalgesia was assessed by the method of Hargreaves et al. (1988) by measuring the latency to withdraw the hind paw from a focused beam of radiant heat (thermal intensity: infrared 3.0) applied to the plantar surface using a plantar test apparatus (Ugo Basile). The cutoff time was set at 30 s. Withdrawal latency were measured on both inflamed and not-inflamed paws ( ) 2, 4, 6 and 24 hours after carrageenan injection. Vehicle or ARN272 (0.01-3 mg/kg, intraperitoneal) were injected immediately before carrageenan. AM251, AM630 and AMG 9810 (1 mg/kg, intraperitoneal) were injected 30 min before carrageenan.

[4] = test system: rat cortical neurons in primary cultures; assay: [3H]-anandamide accumulation in rat cortical neurons in primary cultures; type: cell-based; conditions: Cortical neurone, read-out: IC50, inhibition of [3H]-anandamide accumulation in rat cortical neurons
Description: Primary cultures of rat cortical neurons were prepared as described (Evans, M. S. et al., J Neurosci Methods, 79, 37 (1998)). Briefly, cerebral cortices from 18 day-old rat embryos were dissected and cells were dissociated gently with a glass Pasteur pipette in phosphate-buffered saline (PBS, 10 mM, pH=7.5) containing glucose (6%, weight/volume). The cells were plated in 6-well plates (at a density of 5×10^5 cells per well) coated with poly-(L)-ornithine (10 μg/ml) and poly(DL)-lysine (100 μg/ml), and cultured in Eagle's Minimum Essential Medium (MEM) supplemented with heat-inactivated horse serum (5%, vol/vol) and fetal bovine serum (FBS, 5%, vol/vol), glucose (30 mM), L-glutamine (2 mM), penicillin (10 units/ml), streptomycin (10 μg/ml) and HEPES (15 mM, pH 7.4). After 3 days in culture, media were replaced with Neurobasal (Invitrogen, Carlsbad, Calif.) supplemented with B-27 containing L-glutamine (0.1 mM), streptomycin (10 μg/ml) and penicillin (10 units/ml). The cultures were maintained at 37° C. in a humidified atmosphere of 95% air and 5% CO2. […] The cells were rinsed twice with Tris-Krebs buffer, scraped twice into sodium hydroxide (0.2 N, 0.5 ml) and transferred into scintillation vials. […] All experiments were conducted in triplicate.

[5] = target: T3, rat brain FAAH (Rattus norvegicus, UniProt P97612); assay: FAAH activity assay, rat brain; type: biochemical; conditions: weak and incomplete inhibition
T3 construct: from tissue; host or cells: rat brain membranes
T3 sequence (P97612 1-579): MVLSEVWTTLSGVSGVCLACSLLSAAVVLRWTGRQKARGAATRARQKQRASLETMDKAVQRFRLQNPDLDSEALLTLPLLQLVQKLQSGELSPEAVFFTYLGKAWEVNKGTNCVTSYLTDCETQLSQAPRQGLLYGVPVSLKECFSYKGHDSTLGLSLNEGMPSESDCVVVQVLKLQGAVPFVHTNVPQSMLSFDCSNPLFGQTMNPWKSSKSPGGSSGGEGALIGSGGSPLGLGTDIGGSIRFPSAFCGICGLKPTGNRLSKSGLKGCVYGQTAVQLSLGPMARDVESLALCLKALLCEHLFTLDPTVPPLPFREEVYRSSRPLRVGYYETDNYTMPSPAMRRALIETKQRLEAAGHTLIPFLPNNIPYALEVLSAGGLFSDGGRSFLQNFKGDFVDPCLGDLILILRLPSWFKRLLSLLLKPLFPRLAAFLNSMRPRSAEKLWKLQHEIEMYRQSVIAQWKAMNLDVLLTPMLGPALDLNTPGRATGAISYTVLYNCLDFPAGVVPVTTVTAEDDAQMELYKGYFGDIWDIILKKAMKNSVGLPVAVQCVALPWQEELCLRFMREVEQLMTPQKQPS
Description: Cells were harvested and subjected to sonication in Tris-HCl buffer (50 mM, pH 8.0) containing sucrose ([…]). Debris was removed by centrifugation for 5 min at 1,000×g, and protein concentration measured using a commercial kit (Bio-Rad, Hercules, Calif.). […] After stopping the reactions with chloroform/methanol (1:1, vol/vol, 1 ml), radioactivity was measured in the aqueous layers.

[6] = target: T4, CB1 cannabinoid receptors (Rattus norvegicus, UniProt P20272); assay: Cannabinoid receptor binding assay, [3H]-CP55940 to rat brain membranes
T4 construct: Brain membrane protein (50 μg) was incubated at 30° C. for 1 hr; from tissue; host or cells: rat brain membranes

[7] = Fatty acid amide measurements ex vivo (plasma levels in mice); conditions: 1 mg/kg intraperitoneal
Description: CD1 mice received intraperitoneal injections of vehicle (5% polyethylene glycol 400-5% Tween-80 in saline, 5 ml/kg) or ARN272 (1 mg/kg) and were sacrificed 1 h or 2 h later under isoflurane anaesthesia. Blood was collected through a left cardiac puncture and centrifuged at 2000×g for 30 min. Plasma (0.2 ml) was incubated with 1 ml cold acetone, centrifuged at 1,500×g for 15 min at 4° C. and suspended in 50% methanol (2 ml) containing the following deuterium-containing standards: […] Lipids were reconstituted in methanol (0.1 ml) and measured by isotope-dilution liquid chromatography/mass spectrometry (Fu, J. et al., J Biol Chem, 282, 1518 (2007)).

[8] = target: T5, recombinant human FAAH-1 (Homo sapiens, UniProt O00519); assay: Hydrolysis of compound by incubation with recombinant human FAAH-1; type: in vitro ADME; conditions: after 24 h at 25° C.
T5 sequence (O00519 1-579): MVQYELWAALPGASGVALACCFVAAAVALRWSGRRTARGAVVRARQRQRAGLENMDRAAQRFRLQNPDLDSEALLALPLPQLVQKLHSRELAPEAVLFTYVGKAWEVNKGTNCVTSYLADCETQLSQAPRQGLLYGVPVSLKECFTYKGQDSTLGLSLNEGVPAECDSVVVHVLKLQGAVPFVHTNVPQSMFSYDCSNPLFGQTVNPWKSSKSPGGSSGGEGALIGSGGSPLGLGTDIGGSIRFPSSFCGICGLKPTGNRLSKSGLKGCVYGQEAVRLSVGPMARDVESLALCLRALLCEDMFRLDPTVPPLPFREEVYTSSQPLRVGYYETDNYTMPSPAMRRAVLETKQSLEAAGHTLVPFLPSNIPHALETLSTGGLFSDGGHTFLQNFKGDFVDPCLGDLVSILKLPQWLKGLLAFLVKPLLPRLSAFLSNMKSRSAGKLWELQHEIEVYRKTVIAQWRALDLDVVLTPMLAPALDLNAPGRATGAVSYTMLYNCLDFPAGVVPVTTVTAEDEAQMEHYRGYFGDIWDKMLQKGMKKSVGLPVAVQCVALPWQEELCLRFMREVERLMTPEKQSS

[9] = test system: rat cortical neurons; conditions: read-out: apparent Michaelis constant, KM, of anandamide transport; cited from earlier work

T4 sequence (P20272 whole entry): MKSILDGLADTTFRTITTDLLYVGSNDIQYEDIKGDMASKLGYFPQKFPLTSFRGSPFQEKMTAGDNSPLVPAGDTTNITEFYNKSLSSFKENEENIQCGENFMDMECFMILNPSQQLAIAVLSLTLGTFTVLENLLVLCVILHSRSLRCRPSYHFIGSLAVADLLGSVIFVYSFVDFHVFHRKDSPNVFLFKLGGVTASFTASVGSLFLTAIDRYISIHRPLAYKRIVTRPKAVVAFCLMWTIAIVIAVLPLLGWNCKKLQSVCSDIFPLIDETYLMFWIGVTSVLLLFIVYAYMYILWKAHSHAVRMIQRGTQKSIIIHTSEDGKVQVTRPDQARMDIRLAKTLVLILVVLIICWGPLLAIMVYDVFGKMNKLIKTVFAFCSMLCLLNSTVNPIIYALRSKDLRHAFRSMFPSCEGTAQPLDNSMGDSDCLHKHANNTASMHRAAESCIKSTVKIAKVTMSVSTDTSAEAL

CCCCC/C=C\C/C=C\C/C=C\C/C=C\CCCC(=O)Nc1ccc(O)cc1 [AM404]
IC50 ([1]; purified recombinant FLAT, read-out: IC50, displacement of [3H]-anandamide binding to FLAT-GST): 5.3 µM
IC50 [2]: 4 µM

Cc1c(C(=O)NN2CCCCC2)nn(-c2ccc(Cl)cc2Cl)c1-c1ccc(I)cc1 [AM251, reference compound]
effect of antagonist on the anti-hyperalgesic and anti-edema effects of ARN272 [3]: suppressed

O=C(Nc1ccccc1)c1ccc(Nc2nnc(-c3ccc(O)cc3)c3ccccc23)cc1 [ARN272, 4-{[4-(4-hydroxyphenyl)phthalazin-1-yl]amino-N-phenylbenzamide}]
IC50 [4]: 1.5 µM
inhibition at 100 µM [5]: 50%
effect on [3H]-CP55940 binding to rat brain membranes [6]: did not significantly alter
plasma concentrations of anandamide [7]: increased
plasma levels of 2-AG [7]: without changing
plasma levels of OEA [7]: without changing
plasma levels of PEA [7]: without changing
fraction hydrolyzed by recombinant human FAAH-1 [8]: ≈ 5%
mechanical hyperalgesia in inflamed paws ([3]; 0.01-3 mg/kg intraperitoneal): dose-dependent reduction
thermal hyperalgesia in inflamed paws ([3]; 0.01-3 mg/kg intraperitoneal): dose-dependent reduction
duration of anti-hyperalgesic effect ([3]; after intraplantar carrageenan): up to 4 h
paw edema ([3]; intraperitoneal): substantially reduced
IC50 [2]: 3.5 µM

COc1ccc(C(=O)c2c(C)n(CCN3CCOCC3)c3cc(I)ccc23)cc1 [AM630, reference compound]
effect of antagonist on the anti-hyperalgesic and anti-edema effects of ARN272 [3]: ineffective

CCCCC/C=C\C/C=C\C/C=C\C/C=C\CCCC(=O)NCc1ccoc1 [UCM707]
effect on [3H]-anandamide accumulation in FLAT-expressing Hek293 cells ([2]; transport inhibitors): prevented

CCCCC/C=C\C/C=C\C/C=C\C/C=C\CCCC(=O)Nc1ccc(O)cc1C [VDM11]
effect on [3H]-anandamide accumulation in FLAT-expressing Hek293 cells ([2]; transport inhibitors): prevented

CC(C)(C)c1ccc(/C=C/C(=O)Nc2ccc3c(c2)OCCO3)cc1 [AMG9810, reference compound]
effect of antagonist on the anti-hyperalgesic and anti-edema effects of ARN272 [3]: ineffective

CCCCC/C=C\C/C=C\C/C=C\C/C=C\CCCC(=O)NCCO [anandamide]
Km [9]: 1.2 µM
Kd ([1]; saturation binding, 25° C., 2 h, read-out: dissociation constant, Kd, of [3H]-anandamide binding to FLAT-GST): 2 µM
effect on [3H]-anandamide accumulation in FLAT-expressing Hek293 cells ([2]; non-radioactive anandamide, 100 μM): prevented
